Source: the supplement of paper PMC10307832

compound: COc1cc2nc(N3CCCN(C)CC3)nc(NC3CCN(Cc4ccccc4)CC3)c2cc1OC + CC1(C)CCC(c2ccc(Cl)cc2)=C(CN2CCN(c3ccc(C(=O)NS(=O)(=O)c4ccc(N[C@H](CCN5CCOCC5)CSc5ccccc5)c(S(=O)(=O)C(F)(F)F)c4)cc3)CC2)C1 [Navitoclax] (partner 0.5 µM); experiment: relative viability (nuclei count vs DMSO), 5 days (fraction); higher = more cells survive; conditions: first compound 0.2 µM
Procedure, shortened: (§1)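 Nuclei were stained with Hoechst during a one-step fixation (final 0.05% Triton X-100, 1% formaldehyde, 1 ug/ml Hoechst) carried out 5 days after dosing, then counted on 4× images. The cells, lung cancer lines in 1536-well plates, had been dosed by pin tool the day after seeding with one drug alone or a fixed anchor-drug dose plus five library-drug doses (not always all listed) in √10 steps. Relative viability is the nuclei count in treated wells divided by that in vehicle wells, and each value is the median of duplicate plates.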

Compared with HOP-62, LU99A is higher in relative viability: 0.856 for the first, 0.899 for the second.

Going from BEN to HARA, the relative viability rises from 0.0596 to 1.13.

Compared with HCC-78, NCI-H322M is higher in relative viability: 0.844 for the first, 1.12 for the second.

Going from LCLC-97TM1 to NCI-H2009, the relative viability rises from 0.37 to 1.22.

Going from A-427 to NCI-H441, the relative viability falls from 1.04 to 0.591.

First: NCI-H1734
Second: NCI-H460
The relative viability of the first is lower: 0.883 for the first, 1.16 for the second.

First: NCI-H2347
Second: SK-LU-1
The relative viability of the first is lower: 0.764 for the first, 1.06 for the second.

First: NCI-H1395
Second: 201T
The relative viability of the first is lower: 1.18 for the first, 1.2 for the second.

Compared with NCI-H1915, HCC-827 is higher in relative viability: 0.805 for the first, 1.01 for the second.

Going from LXF-289 to NCI-H23, the relative viability falls from 0.894 to 0.757.

Compared with NCI-H647, CAL-12T is higher in relative viability: 1.07 for the first, 1.28 for the second.

First: NCI-H1651
Second: EPLC-272H
The relative viability of the first is higher: 1.14 for the first, 1.08 for the second.

Going from NCI-H2228 to NCI-H1355, the relative viability rises from 0.703 to 0.918.

Compared with NCI-H3122, NCI-H1437 is higher in relative viability: 1.01 for the first, 1.12 for the second.

Going from NCI-H1755 to NCI-H2023, the relative viability rises from 0.995 to 1.02.

First: HCC-15
Second: NCI-H1793
The relative viability of the first is higher: 0.725 for the first, 0.49 for the second.

PC-14 showed a relative viability of 1.

same assay, conditions: first compound 0.6325 µM

Compared with HOP-62, LU99A is lower in relative viability: 1.07 for the first, 0.689 for the second.

Compared with BEN, HARA is higher in relative viability: 0.0723 for the first, 1.08 for the second.

First: HCC-78
Second: NCI-H322M
The relative viability of the first is lower: 0.779 for the first, 1.12 for the second.

Compared with NCI-H2009, A-427 is lower in relative viability: 1.17 for the first, 0.966 for the second.

Going from NCI-H1734 to NCI-H460, the relative viability rises from 0.757 to 1.13.

Going from NCI-H2347 to SK-LU-1, the relative viability rises from 0.771 to 1.

Going from NCI-H1395 to 201T, the relative viability falls from 1.32 to 1.2.

Going from NCI-H1915 to HCC-827, the relative viability rises from 0.772 to 1.01.

First: LXF-289
Second: NCI-H23
The relative viability of the first is higher: 0.938 for the first, 0.882 for the second.

Compared with NCI-H647, CAL-12T is higher in relative viability: 1.18 for the first, 1.23 for the second.

First: NCI-H1651
Second: EPLC-272H
The relative viability of the first is lower: 1.02 for the first, 1.06 for the second.

First: NCI-H2228
Second: NCI-H1355
The relative viability of the first is lower: 0.742 for the first, 0.947 for the second.

First: NCI-H3122
Second: NCI-H1437
The relative viability of the first is lower: 1.02 for the first, 1.04 for the second.

First: NCI-H1755
Second: NCI-H2023
The relative viability of the first is lower: 0.972 for the first, 1.01 for the second.

Going from HCC-15 to NCI-H1793, the relative viability falls from 0.749 to 0.489.

For PC-14, the relative viability was 0.93.

same assay, conditions: first compound 2 µM

Compared with HOP-62, LU99A is lower in relative viability: 1.15 for the first, 0.625 for the second.

Compared with BEN, HARA is higher in relative viability: 0.0708 for the first, 1.24 for the second.

First: HCC-78
Second: NCI-H322M
The relative viability of the first is lower: 0.717 for the first, 1.19 for the second.

Going from LCLC-97TM1 to NCI-H2009, the relative viability rises from 0.34 to 1.2.

First: A-427
Second: NCI-H441
The relative viability of the first is higher: 1 for the first, 0.831 for the second.

First: NCI-H1734
Second: NCI-H460
The relative viability of the first is lower: 0.83 for the first, 1.17 for the second.

First: NCI-H2347
Second: SK-LU-1
The relative viability of the first is lower: 0.873 for the first, 1.2 for the second.

First: NCI-H1395
Second: 201T
The relative viability of the first is lower: 1.17 for the first, 1.23 for the second.

Going from NCI-H1915 to HCC-827, the relative viability rises from 0.843 to 0.988.

Compared with LXF-289, NCI-H23 is higher in relative viability: 1.01 for the first, 1.02 for the second.

Compared with NCI-H647, CAL-12T is lower in relative viability: 1.32 for the first, 1.27 for the second.

Going from NCI-H1651 to EPLC-272H, the relative viability falls from 1.42 to 1.22.

First: NCI-H2228
Second: NCI-H1355
The relative viability of the first is lower: 0.797 for the first, 1.01 for the second.

Compared with NCI-H3122, NCI-H1437 is higher in relative viability: 1.05 for the first, 1.17 for the second.

Going from NCI-H1755 to NCI-H2023, the relative viability rises from 0.951 to 1.03.

Compared with HCC-15, NCI-H1793 is lower in relative viability: 0.765 for the first, 0.492 for the second.

Cell Line PC-14 has a relative viability of 1.14.

same assay, conditions: first compound 6.325 µM

Compared with HOP-62, LU99A is lower in relative viability: 1.02 for the first, 0.815 for the second.

Compared with BEN, HARA is higher in relative viability: 0.0777 for the first, 1.15 for the second.

First: HCC-78
Second: NCI-H322M
The relative viability of the first is lower: 0.602 for the first, 1.21 for the second.

First: LCLC-97TM1
Second: NCI-H2009
The relative viability of the first is lower: 0.444 for the first, 1.15 for the second.

Compared with A-427, NCI-H441 is lower in relative viability: 0.948 for the first, 0.277 for the second.

First: NCI-H1734
Second: NCI-H460
The relative viability of the first is lower: 0.599 for the first, 0.754 for the second.

Going from NCI-H2347 to SK-LU-1, the relative viability falls from 0.693 to 0.461.

First: NCI-H1395
Second: 201T
The relative viability of the first is lower: 1.05 for the first, 1.15 for the second.

Going from NCI-H1915 to HCC-827, the relative viability rises from 0.797 to 1.01.

First: LXF-289
Second: NCI-H23
The relative viability of the first is higher: 0.905 for the first, 0.722 for the second.

Going from NCI-H647 to CAL-12T, the relative viability rises from 0.964 to 1.19.

Compared with NCI-H1651, EPLC-272H is lower in relative viability: 1.03 for the first, 1.02 for the second.

Compared with NCI-H2228, NCI-H1355 is higher in relative viability: 0.415 for the first, 0.921 for the second.

Compared with NCI-H3122, NCI-H1437 is higher in relative viability: 0.992 for the first, 1.04 for the second.

Going from NCI-H1755 to NCI-H2023, the relative viability falls from 0.968 to 0.616.

First: HCC-15
Second: NCI-H1793
The relative viability of the first is higher: 0.487 for the first, 0.457 for the second.

In the case of PC-14, the relative viability is reported as 0.882.

compound: Cc1cc([C@@H](C)Nc2ccccc2C(=O)O)c2nc(N3CCOCC3)cc(=O)n2c1 [AZD6482] + CC1(C)CCC(c2ccc(Cl)cc2)=C(CN2CCN(c3ccc(C(=O)NS(=O)(=O)c4ccc(N[C@H](CCN5CCOCC5)CSc5ccccc5)c(S(=O)(=O)C(F)(F)F)c4)cc3)CC2)C1 [Navitoclax] (partner 0.5 µM); experiment: as above; conditions: first compound 0.08 µM
Procedure, shortened: as §1

First: HOP-62
Second: LU99A
The relative viability of the first is higher: 1.19 for the first, 0.753 for the second.

Going from BEN to HARA, the relative viability rises from 0.058 to 1.11.

First: HCC-78
Second: NCI-H322M
The relative viability of the first is lower: 0.663 for the first, 1.24 for the second.

Compared with LCLC-97TM1, NCI-H2009 is higher in relative viability: 0.59 for the first, 1.11 for the second.

Going from A-427 to NCI-H441, the relative viability falls from 0.861 to 0.752.

First: NCI-H1734
Second: NCI-H460
The relative viability of the first is lower: 0.73 for the first, 0.968 for the second.

Compared with NCI-H1395, 201T is higher in relative viability: 0.831 for the first, 1.22 for the second.

Going from NCI-H1915 to HCC-827, the relative viability rises from 0.772 to 0.938.

Going from LXF-289 to NCI-H23, the relative viability falls from 0.974 to 0.828.

Compared with NCI-H647, CAL-12T is higher in relative viability: 0.949 for the first, 1.13 for the second.

Going from NCI-H1651 to EPLC-272H, the relative viability rises from 0.883 to 0.943.

With NCI-H2228 the relative viability was 0.738.
